According to US8920832B2, “Composition for nucleic acid transfection” (Hokkaido System Science Co., Ltd., priority 2006, dated 2014):

Tests used:
HT1080 cells [1] = experiment: DNA (pCMV-SPORT-βgal) transfection into HT1080 cells: β-gal activity; type: cell-based
Source text: (§1) The procedure of Test Example 5 was repeated, except that HeLa cells were replaced with HT1080 cells.
(§2) The procedure of Test Example 7 was repeated, except that HeLa cells were replaced with HT1080 cells.

HT1080 cells [2] = experiment: Cytotoxicity score under microscope after DNA transfection, HT1080 cells; type: cell-based; set-up: scale not given here
Source text: as §1, §2

HeLa cells [3] = experiment: DNA (pCMV-SPORT-βgal) transfection into HeLa cells: β-gal activity; details: for β-gal activity: HeLa; for effect of enhancer on nucleic-acid-transfecting performance and cytotoxicity, in words: enhancer added to liposome solution of Formulation Example 4, summary of Tables 13 and 14 (HeLa and HT1080)
Protocol: (§3) HeLa cells were inoculated into a 96-well plate (7,500 cells/100 μL/well), followed by culturing for about 24 hours. DNA (pCMV-SPORT-βgal) was diluted with a DMEM medium, to thereby prepare a DNA-diluted solution having a DNA concentration of 8 μg/mL (for the case of 200 ng/well). […] The thus-obtained solution or Lipofectamine 2000 as a positive control (product of Invitrogen) was diluted with a DMEM medium so that the amount of the reconstituted liposome solution or Lipofectamine 2000 added to cells was “Amount of liposomes added (μL/well)” shown in Table 9 or 10. Immediately after dilution, the DNA-diluted solution (25 μL) was added to and mixed with the liposome-diluted solution (25 μL), and the mixture was allowed to stand still at room temperature for 30 minutes, to thereby form a DNA/liposome complex. The DNA/liposome complex (50 μL) was added to the inoculated HeLa cells (about 70 to about 90% confluent), to thereby initiate transfection. After culturing at 37° C. and 5% CO2 for one hour, a 10% FBS/DMEM medium (100 μL) was added to the culture liquid, followed by culturing at 37° C. and 5% CO2 for about 21 hours.
The culture supernatant was removed, and the cells were washed with PBS(−). Thereafter, determination of β-galactosidase (hereinafter may be abbreviated as “β-gal”) activity, quantitative determination of protein, and viable cell counting were carried out as described below.
After complete removal of PBS through suction, a lysis buffer (30 μL) was added to the cells, and the mixture was stirred and then allowed to stand still at −80° C. for 30 minutes or longer for freezing. After rapid thawing in a water bath at 37° C., the mixture was again allowed to stand still at −80° C. for 30 minutes or longer for freezing, followed by rapid thawing in a water bath at 37° C. Thereafter, centrifugation was carried out (2,000 g×10 minutes), and the resultant supernatant (sample) (10 μL) was added to a 96-well microplate.
Determination of β-gal activity was carried out by means of a β-gal assay kit (product of Invitrogen). […] A 2-Me-containing cleavage buffer was added (50 μL/well) to the sample or each of the standard-diluted solutions (10 μL), and 4 mg/mL aqueous ONPG solution was added (17 μL/well), followed by incubation at 37° C. for 30 minutes. After completion of incubation, a stop buffer was added (120 μL/well) for termination of reaction, and absorbance was measured at 405 nm.
(§4) Each of the enhancers shown in Table 13 was diluted with a DMEM medium to different concentrations so that the amount of the enhancer finally added to cells was “Enhancer amount (μg/well)” shown in Table 13. […] The thus-diluted liposome solution was added to an equiamount of the above-diluted enhancer, followed by incubation at room temperature for 20 minutes. […] Subsequently, cytotoxicity was evaluated according to the aforementioned scores, and determination of β-gal activity, quantitative determination of protein, and viable cell counting were carried out.

HeLa cells [4] = experiment: Cytotoxicity score under microscope after DNA transfection, HeLa cells; type: cell-based
Protocol: as §3, §4

[5] = Formulation Example 4 0.38 μL/well, enhancer 0.00625 μg/well
[6] = Formulation Example 4 0.38 μL/well, enhancer 0.0125 μg/well
[7] = Formulation Example 4 0.38 μL/well, enhancer 0.025 μg/well
[8] = Formulation Example 4 0.38 μL/well, enhancer 0.05 μg/well
[9] = Formulation Example 4 0.38 μL/well, enhancer 0.1 μg/well
[10] = Formulation Example 4 0.75 μL/well, enhancer 0.00625 μg/well
[11] = Formulation Example 4 0.75 μL/well, enhancer 0.0125 μg/well
[12] = Formulation Example 4 0.75 μL/well, enhancer 0.025 μg/well
[13] = Formulation Example 4 0.75 μL/well, enhancer 0.05 μg/well
[14] = Formulation Example 4 0.75 μL/well, enhancer 0.1 μg/well
[15] = Formulation Example 4 0.38 μL/well, enhancer 6.25 μg/well
[16] = Formulation Example 4 0.38 μL/well, enhancer 12.5 μg/well
[17] = Formulation Example 4 0.38 μL/well, enhancer 25 μg/well
[18] = Formulation Example 4 0.38 μL/well, enhancer 50 μg/well
[19] = Formulation Example 4 0.38 μL/well, enhancer 100 μg/well
[20] = Formulation Example 4 0.75 μL/well, enhancer 6.25 μg/well
[21] = Formulation Example 4 0.75 μL/well, enhancer 12.5 μg/well
[22] = Formulation Example 4 0.75 μL/well, enhancer 25 μg/well
[23] = Formulation Example 4 0.75 μL/well, enhancer 50 μg/well
[24] = Formulation Example 4 0.75 μL/well, enhancer 100 μg/well
[25] = Formulation Example 4 0.38 μL/well, enhancer 0.625 μg/well
[26] = Formulation Example 4 0.38 μL/well, enhancer 1.25 μg/well
[27] = Formulation Example 4 0.38 μL/well, enhancer 2.5 μg/well
[28] = Formulation Example 4 0.38 μL/well, enhancer 5 μg/well
[29] = Formulation Example 4 0.38 μL/well, enhancer 10 μg/well
[30] = Formulation Example 4 0.75 μL/well, enhancer 0.625 μg/well
[31] = Formulation Example 4 0.75 μL/well, enhancer 1.25 μg/well
[32] = Formulation Example 4 0.75 μL/well, enhancer 2.5 μg/well
[33] = Formulation Example 4 0.75 μL/well, enhancer 5 μg/well
[34] = Formulation Example 4 0.75 μL/well, enhancer 10 μg/well

pronectin
β-gal activity (HT1080 cells [1]; [5]): 87.2 mU/well
β-gal activity (HT1080 cells [1]; [6]): 70.2 mU/well
β-gal activity (HT1080 cells [1]; [7]): 52.0 mU/well
β-gal activity (HT1080 cells [1]; [8]): 3.3 mU/well
β-gal activity (HT1080 cells [1]; [9]): 0.3 mU/well
β-gal activity (HT1080 cells [1]; [10]): 102.6 mU/well
β-gal activity (HT1080 cells [1]; [11]): 107.3 mU/well
β-gal activity (HT1080 cells [1]; [12]): 92.1 mU/well
β-gal activity (HT1080 cells [1]; [13]): 16.0 mU/well
β-gal activity (HT1080 cells [1]; [14]): 4.4 mU/well
Cytotoxicity score (HT1080 cells [2]; [5]): 1.5
Cytotoxicity score (HT1080 cells [2]; [6]): 1.0
Cytotoxicity score (HT1080 cells [2]; [7]): 0.5
Cytotoxicity score (HT1080 cells [2]; [8]): 1.0
Cytotoxicity score (HT1080 cells [2]; [9]): 1.0
Cytotoxicity score (HT1080 cells [2]; [10]): 3.0
Cytotoxicity score (HT1080 cells [2]; [11]): 3.0
Cytotoxicity score (HT1080 cells [2]; [12]): 2.5
Cytotoxicity score (HT1080 cells [2]; [13]): 2.5
Cytotoxicity score (HT1080 cells [2]; [14]): 2.0
β-gal activity (HeLa cells [3]; [5]): 23.3 mU/well
β-gal activity (HeLa cells [3]; [6]): 19.4 mU/well
β-gal activity (HeLa cells [3]; [7]): 15.5 mU/well
β-gal activity (HeLa cells [3]; [8]): 3.2 mU/well
β-gal activity (HeLa cells [3]; [9]): 0.8 mU/well
β-gal activity (HeLa cells [3]; [10]): 28.7 mU/well
β-gal activity (HeLa cells [3]; [11]): 25.1 mU/well
β-gal activity (HeLa cells [3]; [12]): 16.2 mU/well
β-gal activity (HeLa cells [3]; [13]): 6.2 mU/well
β-gal activity (HeLa cells [3]; [14]): 2.3 mU/well
effect of enhancer on nucleic-acid-transfecting performance and cytotoxicity, in words (HeLa cells [3]): excellent effects
Cytotoxicity score (HeLa cells [4]; [5]): 2.0
Cytotoxicity score (HeLa cells [4]; [6]): 2.0
Cytotoxicity score (HeLa cells [4]; [7]): 2.0
Cytotoxicity score (HeLa cells [4]; [8]): 1.5
Cytotoxicity score (HeLa cells [4]; [9]): 2.0
Cytotoxicity score (HeLa cells [4]; [10]): 4.0
Cytotoxicity score (HeLa cells [4]; [11]): 3.5
Cytotoxicity score (HeLa cells [4]; [12]): 3.5
Cytotoxicity score (HeLa cells [4]; [13]): 3.0
Cytotoxicity score (HeLa cells [4]; [14]): 3.0

NCCCNCCCCNCCCN [Spermine]
β-gal activity (HT1080 cells [1]; [15]): 31.1 mU/well
β-gal activity (HT1080 cells [1]; [16]): 29.1 mU/well
β-gal activity (HT1080 cells [1]; [17]): 34.9 mU/well
β-gal activity (HT1080 cells [1]; [18]): 21.5 mU/well
β-gal activity (HT1080 cells [1]; [19]): 6.8 mU/well
β-gal activity (HT1080 cells [1]; [20]): 76.5 mU/well
β-gal activity (HT1080 cells [1]; [21]): 64.6 mU/well
β-gal activity (HT1080 cells [1]; [22]): 72.9 mU/well
β-gal activity (HT1080 cells [1]; [23]): 10.9 mU/well
β-gal activity (HT1080 cells [1]; [24]): 1.3 mU/well
Cytotoxicity score (HT1080 cells [2]; [15]): 2.5
Cytotoxicity score (HT1080 cells [2]; [16]): 2.0
Cytotoxicity score (HT1080 cells [2]; [17]): 2.5
Cytotoxicity score (HT1080 cells [2]; [18]): 2.0
Cytotoxicity score (HT1080 cells [2]; [19]): 1.0
Cytotoxicity score (HT1080 cells [2]; [20]): 2.0
Cytotoxicity score (HT1080 cells [2]; [21]): 2.5
Cytotoxicity score (HT1080 cells [2]; [22]): 3.0
Cytotoxicity score (HT1080 cells [2]; [23]): 2.0
Cytotoxicity score (HT1080 cells [2]; [24]): 2.0
β-gal activity (HeLa cells [3]; [15]): 0.8 mU/well
β-gal activity (HeLa cells [3]; [16]): 1.0 mU/well
β-gal activity (HeLa cells [3]; [17]): 0.2 mU/well
β-gal activity (HeLa cells [3]; [18]): 0.2 mU/well
β-gal activity (HeLa cells [3]; [19]): 0.1 mU/well
β-gal activity (HeLa cells [3]; [20]): 1.8 mU/well
β-gal activity (HeLa cells [3]; [21]): 0.1 mU/well
β-gal activity (HeLa cells [3]; [22]): 0.0 mU/well
β-gal activity (HeLa cells [3]; [23]): 0.1 mU/well
β-gal activity (HeLa cells [3]; [24]): 0.3 mU/well
Cytotoxicity score (HeLa cells [4]; [15]): 0.0
Cytotoxicity score (HeLa cells [4]; [16]): 0.0
Cytotoxicity score (HeLa cells [4]; [17]): 0.0
Cytotoxicity score (HeLa cells [4]; [18]): 2.0
Cytotoxicity score (HeLa cells [4]; [19]): 2.0
Cytotoxicity score (HeLa cells [4]; [20]): 4.0
Cytotoxicity score (HeLa cells [4]; [21]): 4.0
Cytotoxicity score (HeLa cells [4]; [22]): 4.0
Cytotoxicity score (HeLa cells [4]; [23]): 4.0
Cytotoxicity score (HeLa cells [4]; [24]): 2.0

protamine
β-gal activity (HT1080 cells [1]; [25]): 79.3 mU/well
β-gal activity (HT1080 cells [1]; [26]): 61.5 mU/well
β-gal activity (HT1080 cells [1]; [27]): 23.1 mU/well
β-gal activity (HT1080 cells [1]; [28]): 4.1 mU/well
β-gal activity (HT1080 cells [1]; [29]): 2.7 mU/well
β-gal activity (HT1080 cells [1]; [30]): 103.9 mU/well
β-gal activity (HT1080 cells [1]; [31]): 103.9 mU/well
β-gal activity (HT1080 cells [1]; [32]): 49.8 mU/well
β-gal activity (HT1080 cells [1]; [33]): 19.5 mU/well
β-gal activity (HT1080 cells [1]; [34]): 15.1 mU/well
Cytotoxicity score (HT1080 cells [2]; [25]): 1.5
Cytotoxicity score (HT1080 cells [2]; [26]): 1.5
Cytotoxicity score (HT1080 cells [2]; [27]): 1.0
Cytotoxicity score (HT1080 cells [2]; [28]): 0.5
Cytotoxicity score (HT1080 cells [2]; [29]): 0.5
Cytotoxicity score (HT1080 cells [2]; [30]): 2.5
Cytotoxicity score (HT1080 cells [2]; [31]): 2.0
Cytotoxicity score (HT1080 cells [2]; [32]): 2.0
Cytotoxicity score (HT1080 cells [2]; [33]): 2.0
Cytotoxicity score (HT1080 cells [2]; [34]): 1.0
β-gal activity (HeLa cells [3]; [25]): 30.4 mU/well
β-gal activity (HeLa cells [3]; [26]): 9.8 mU/well
β-gal activity (HeLa cells [3]; [27]): 4.8 mU/well
β-gal activity (HeLa cells [3]; [28]): 0.9 mU/well
β-gal activity (HeLa cells [3]; [29]): 0.1 mU/well
β-gal activity (HeLa cells [3]; [30]): 46.2 mU/well
β-gal activity (HeLa cells [3]; [31]): 26.3 mU/well
β-gal activity (HeLa cells [3]; [32]): 10.1 mU/well
β-gal activity (HeLa cells [3]; [33]): 3.1 mU/well
β-gal activity (HeLa cells [3]; [34]): 0.5 mU/well
effect of enhancer on nucleic-acid-transfecting performance and cytotoxicity, in words (HeLa cells [3]): excellent effects
Cytotoxicity score (HeLa cells [4]; [25]): 1.5
Cytotoxicity score (HeLa cells [4]; [26]): 0.5
Cytotoxicity score (HeLa cells [4]; [27]): 0.5
Cytotoxicity score (HeLa cells [4]; [28]): 0.5
Cytotoxicity score (HeLa cells [4]; [29]): 0.5
Cytotoxicity score (HeLa cells [4]; [30]): 3.0
Cytotoxicity score (HeLa cells [4]; [31]): 1.0
Cytotoxicity score (HeLa cells [4]; [32]): 0.5
Cytotoxicity score (HeLa cells [4]; [33]): 0.5
Cytotoxicity score (HeLa cells [4]; [34]): 0.5
